Read-outs that look alike come from different tables or passages of the source.
Columns and labels:
Microsomal stability = type: in vitro ADME; conditions: human, mouse, rat, dog, monkey, liver microsomes, 30 minutes 37 ℃, with and without NADPH, across all microsomes tested
Protocol: The metabolic stability of RA-PR058 was evaluated using liver microsomes from humans and various animal species at 37 ℃. This assay was carried out by SPMED Co., Ltd (Republic of Korea). The test was initiated by adding the 1 μM of RA-PR058 to liver microsomes in the presence or absence of an NADPH regenerating system. After incubation at 37 ℃ for 30 minutes, acetonitrile containing an internal standard was added to each sample to terminate the reaction. Samples were then centrifuged, and the supernatant was analyzed by LC-MS.

[1] = system: cytochrome P450 (CYP) isoforms (CYP1A2, CYP2C9, CYP2C19, CYP2D6, and CYP3A); assay: Cytochrome P450 inhibition assay in human liver microsomes; type: in vitro ADME; conditions: 10 μM RA-PR058, 20 minutes 37 ℃, with NADPH regenerating system
Protocol: Inhibitory potentials of RA-PR058 on cytochrome P450 (CYP) isoforms (CYP1A2, CYP2C9, CYP2C19, CYP2D6, and CYP3A) were evaluated. This assay was conducted by SPMED Co., Ltd (Republic of Korea). Human liver microsomes were incubated at 37 ℃ for 20 minutes with phosphate buffer (pH 7.4), each CYP substrate (for CYP1A2: phenacetin, CYP2C9: diclofenac, CYP2C19: S-mephenytoin, CYP2D6: dextromethorphan, CYP3A: midazolam), and 10 μM of RA-PR058 in the presence of an NADPH regenerating system. The reaction was terminated by adding an acetonitrile solution containing an internal standard. Following reaction termination, samples were centrifuged, and the supernatant was injected into an LC-MS/MS system to analyze the metabolites of each substrate drug.

BACE1 = BACE1 expression in brain of 3xTg-AD mice (western blot); type: in vivo, mouse; conditions: 20 mg/kg oral daily 4 weeks
Protocol: 3xTg-AD (B6;129-Tg(APPSwe,tauP301L)1Lfa Psen1^tm1Mpm/Mmjax) mice and their littermate wild-type (WT) mice were used in this study. Each experimental group consisted of 4–8 mice, with groups designated as WT, 3xTg-AD Vehicle, and 3xTg-AD RA-PR058. All mice were maintained in a 12-hour light/dark cycle with free access to food and water. 7-month-old age of mice were administered with 20 mg/kg of RA-PR058 orally once a day for 1 month followed by the elevated plus maze test. All animal experimental procedures were approved by the Institutional Animal Care and Use Committee of Sungkyunkwan University (SKKUIACUC2022-10-41-1).
After EPM was conducted, mice were sacrificed, and brain tissues were collected as previously described (Park et al. [2021]). Mice were anesthetized by injecting Zoletil (Virbac) and Rompun (Bayer) intraperitoneally. After mice were anesthetized, they were perfused with phosphate-buffered saline (PBS). Then, brains were extracted and cut into two hemispheres; one hemisphere was preserved in 4% paraformaldehyde and the other was dissected into the cortex and hippocampus. […]
Samples for western blot analysis were prepared as previously described (Gwon et al. [2012]). […] Protein concentrations were measured using Pierce™ BCA Protein Assay Kits (Thermo Fisher Scientific). […] Protein bands were quantified using ImageJ (NIH).

[2] = Plasma pharmacokinetics after IV and PO administration; type: in vivo; conditions: Sprague-Dawley, rat, 10 mg/kg, S.D. rats; for Cmax / half-life / AUC(0-t): in vivo; for AUC(0-t): read-out: AUC0-7h; for Tmax: plasma
Protocol: Pharmacokinetic assays were conducted by NeuroVis (Republic of Korea). 10 mg/kg of RA-PR058 was administered to Sprague–Dawley rats by either oral administration route or intravenous injection route. Blood sampling was conducted using the BASi Culex ABS system. After cannulation, catheters were inserted into the jugular vein and the carotid artery of the rats, with the system programmed to collect 200 μL samples. Collected blood samples were centrifuged at 12,000 x rpm for 10 minutes to separate plasma, which was then immediately stored at −80 ℃. For brain pharmacokinetics, 10 mg/kg of RA-PR058 was administered orally to Sprague–Dawley rats, followed by collection of both blood and brain tissue. After collection, samples were mixed with the internal standard, ofloxacin, and centrifuged at 13,000 x rpm for 5 minutes at 4 ℃. The resulting supernatants were then combined with 50% methanol and analyzed by LC-MS/MS.

Cl.N[C@@H](CCC(=O)NNc1ccccc1F)C(F)F [RA-PR058, (S)-4-amino-5,5-difluoro-N'-(2-fluorophenyl)pentanehydrazide hydrochloride]
remaining at 0.5 h, 1 μM (Microsomal stability): > 90%
Decrease in mean control activity of CYP isoforms [1]: 12%
Cortical BACE1 expression (BACE1; cortex, normalized with β-Actin): significantly reduced
BACE1 expression in the hippocampus (BACE1; hippocampus): did not affect
Cmax ([2]; IV): 4260 ng/mL
half-life ([2]; IV): 63.5 min
AUC(0-t) ([2]; IV): 5700 ng·h/mL
Cmax ([2]; PO): 3480 ng/mL
half-life ([2]; PO): 94.5 min
AUC(0-t) ([2]; PO): 6090 ng·h/mL
Tmax ([2]; IV): 17.5 min
Tmax ([2]; PO): 27.5 min
